Assay results as given in patent US20140242093A1, “METHODS AND COMPOSITIONS FOR MODULATING THE INNATE IMMUNE RESPONSE AND/OR MYOGENESIS IN A MAMMALIAN SUBJECT” (FRED HUTCHINSON CANCER RESEARCH CENTER, priority 2011, published 2014).

Tests used:
[1] = tested on: human rhabdomyosarcoma cell line RD; experiment: Luciferase reporter assay with DUX4 binding sites; assay type: cell-based
Description: The DUX4 binding site in the ZSCAN4 pGL3-promoter construct was either reversed in orientation (as shown in FIG. 3D) or moved downstream of the reporter gene (as shown in FIG. 3E). […] Transfections and luciferase assays were done as in main methods. Data are given as the averages±SD of triplicates.
Transient DNA transfections of RD cells were performed using SuperFect (Qiagen) according to manufacturer specifications. Briefly, 3×10^5 cells were seeded per 35 mm plate the day prior to transfection. […] Cells were lysed 24 h post-transfection in Passive Lysis Buffer (Promega). Luciferase activities were quantified using reagents from the Dual-Luciferase Reporter Assay System (Promega) following manufacturer's instructions. Light emission was measured using BioTek Synergy2 luminometer. Luciferase data are given as the averages±SD of at least triplicates.

MaLR transcripts (THE1) = experiment: MaLR expression analysis by real-time PCR; assay type: cell-based, human; details: RT-PCR, transduced muscle cells
Description: Real-time PCR was performed as described above. Water and minus RT controls were checked to ensure there was no amplification of these repetitive elements from residual or contaminating genomic DNA.

[2] = tested on: cultured human skeletal muscle cells; details: cited from earlier work

DUX4-fl: full-length DUX4 protein (SEQ ID NO:110), expressed from lentiviral or pCS2 vectors or in vitro translated
luciferase reporter with DUX4 binding sites from LTRs at a MaLR THE1D element [1]: activated transcription of a luciferase reporter | luciferase expression from pGL3-promoter reporter with 31 bp DUX4 binding site ([1]; TRIM48 or ZSCAN4 site, co-transfection in RD cells): significantly induced luciferase expression | endogenous MaLR transcripts (MaLR transcripts (THE1)): induction of endogenous MaLR transcripts | toxicity of forced over-expression [2]: toxic to cells, inducing apoptotic cell death
